Experimental data published in patent US20080058352A1, “Fungicidal Mixtures” (priority 2004, published 2008).

Test system: Pyrenophora teres
Assay: activity against net blotch of barley caused by Pyrenophora teres, 5 day protective application
Format: in vivo, Pyrenophora [syn. Drechslera] teres on barley seedlings
Settings: individual active compound, untreated control 90% infection
Description: The active compounds, separately or jointly, were prepared as a stock solution comprising 25 mg of active compound which was made up to 10 ml using a mixture of acetone and/or DMSO and the emulsifier Uniperol® EL (wetting agent having an emulsifying and dispersing action based on ethoxylated alkylphenols) in a ratio by volume of solvent/emulsifier of 99:1. The mixture was then made up to 100 ml with water. This stock solution was diluted with the solvent/emulsifier/water mixture described to give the concentration of active compound stated below. Alternatively, the active compounds were employed as a commercial finished formulation and diluted with water to the stated concentration of active compound.
Use example—activity against net blotch of barley caused by Pyrenophora teres, 5 day protective application.
Leaves of potted barley seedlings were sprayed to runoff point with an aqueous suspension having the concentration of active compound stated below. 5 days after the application, the test plants were inoculated with an aqueous spore suspension of Pyrenophora [syn. Drechslera] teres, the net blotch pathogen. The test plants were then placed in a greenhouse at temperatures between 20 and 24° C. and 95 to 100% relative atmospheric humidity. After 6 days, the extent of the development of the disease was determined visually in % infection of the total leaf area.
The visually determined percentages of infected leaf areas were converted into efficacies in % of the untreated control:
The efficacy (E) is calculated as follows using Abbot's formula:
E=(1−α/β)·100 • α corresponds to the fungal infection of the treated plants in % and • β corresponds to the fungal infection of the untreated (control) plants in %
An efficacy of 0 means that the infection level of the treated plants corresponds to that of the untreated control plants; an efficacy of 100 means that the treated plants were not infected.
The expected efficacies of mixtures of active compounds were determined using Colby's formula (Colby, S. R. “Calculating synergistic and antagonistic responses of herbicide combinations”, Weeds, 15, 20-22, 1967) and compared with the observed efficacies.
E=x+y−x·y/100 • E expected efficacy, expressed in % of the untreated control, when the using the mixture of the active compounds A and B at the concentrations a and b • x efficacy, expressed in % of the untreated control, when using the active compound A at the concentration a • y efficacy, expressed in % of the untreated control, when using the active compound B at the concentration b

Row | SMILES | Efficacy in % of the untreated control (0.25 ppm in the spray liquor) [%] | Efficacy in % of the untreated control (1 ppm in the spray liquor) [%] | Efficacy in % of the untreated control (4 ppm in the spray liquor) [%]
1 | CC(C)CC(C)c1sccc1NC(=O)c1cn(C)nc1C(F)(F)F (stereo not drawn) [IIA.11, penthiopyrad] | 0 | 33 | 56
2 | CC1CCN(c2c(-c3c(F)cc(F)cc3F)c(Cl)nc3ncnn23)CC1 [I, 5-chloro-7-(4-methylpiperidin-1-yl)-6-(2,4,6-trifluorophenyl)[1,2,4]triazolo[1,5-a]pyrimidine] | 0 | 0 | 33
